Data from US6660769B1, “N substituted 3-amino-2,2-di-c-alkyl-1,4-butyrolactones and 1,4-thiobutyrolactones for use as promoter of γ-aminobutyric acid activity and for treating nervous disorders and preparation method” (priority 1999, dated 2003).
Several values for one entry are separate records, joined by “and”; a condition that tells them apart may be missing. Identical values can stand only once. Like-named read-outs stand apart in the source and are kept apart here.

How the values were obtained:
[1] = target: picrotoxin binding site of the GABA-A receptor; details: for IC50: read-out: IC50 of S^35-TBPS displacement
[2] = system: GABA binding site of the GABA-A receptor; experiment: [H3]muscimol displacement, brain membranes; details: 100 μM
[3] = target: T1, α1β2γ2 recombinant GABA-A receptors (Homo sapiens, UniProt P14867+P18507+P47870); experiment: cell-based
T1 construct: expressed in transfected cells; host or cells: Xenopus laevis oocytes injected with cRNA

[4] = Solubility noted in the electrophysiological test
[5] = system: benzodiazepine binding site of the GABA-A receptor; experiment: [H3]flunitrazepam displacement, brain membranes
[6] = system: mice; details: attacks induced by pentylenetetrazole and picrotoxin; cited from earlier work
[7] = target: picrotoxin binding site of the GABA-A receptor; details: published compounds; read-out: Displacement of S^35-TBPS (IC50); cited from earlier work
[8] = system: GABA currents in cultured neurons; details: cited from earlier work
[9] = α1β2γ2, read-out: % of stimulation of the GABA currents
[10] = 200 μM, α1β2γ2, read-out: % of stimulation of the GABA currents

T1 sequence (P14867 28-456): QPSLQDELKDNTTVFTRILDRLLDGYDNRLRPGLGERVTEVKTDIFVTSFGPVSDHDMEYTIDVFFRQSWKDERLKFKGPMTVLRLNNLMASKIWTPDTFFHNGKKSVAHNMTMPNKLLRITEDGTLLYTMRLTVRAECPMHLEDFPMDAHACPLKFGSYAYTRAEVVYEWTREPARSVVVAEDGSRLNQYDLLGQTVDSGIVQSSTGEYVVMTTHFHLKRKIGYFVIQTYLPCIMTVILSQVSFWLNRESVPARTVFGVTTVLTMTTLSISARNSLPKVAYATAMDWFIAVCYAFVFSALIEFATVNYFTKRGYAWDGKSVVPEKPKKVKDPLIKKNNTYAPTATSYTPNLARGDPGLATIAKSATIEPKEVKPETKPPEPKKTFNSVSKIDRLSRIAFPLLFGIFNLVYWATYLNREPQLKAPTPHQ
T1 sequence (P47870 25-512 limits assumed): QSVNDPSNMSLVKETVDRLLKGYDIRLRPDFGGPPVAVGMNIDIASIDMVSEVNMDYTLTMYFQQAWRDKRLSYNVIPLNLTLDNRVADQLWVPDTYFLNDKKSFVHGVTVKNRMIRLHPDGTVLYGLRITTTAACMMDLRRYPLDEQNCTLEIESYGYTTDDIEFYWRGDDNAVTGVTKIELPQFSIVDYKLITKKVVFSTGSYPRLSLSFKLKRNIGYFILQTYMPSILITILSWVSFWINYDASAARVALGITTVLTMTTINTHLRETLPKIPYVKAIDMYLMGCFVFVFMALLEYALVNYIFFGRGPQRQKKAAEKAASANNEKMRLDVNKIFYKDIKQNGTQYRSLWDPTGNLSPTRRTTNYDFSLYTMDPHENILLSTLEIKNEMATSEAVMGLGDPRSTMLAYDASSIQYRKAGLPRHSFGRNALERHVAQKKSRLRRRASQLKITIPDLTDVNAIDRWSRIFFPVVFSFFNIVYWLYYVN
T1 sequence (P18507 40-475): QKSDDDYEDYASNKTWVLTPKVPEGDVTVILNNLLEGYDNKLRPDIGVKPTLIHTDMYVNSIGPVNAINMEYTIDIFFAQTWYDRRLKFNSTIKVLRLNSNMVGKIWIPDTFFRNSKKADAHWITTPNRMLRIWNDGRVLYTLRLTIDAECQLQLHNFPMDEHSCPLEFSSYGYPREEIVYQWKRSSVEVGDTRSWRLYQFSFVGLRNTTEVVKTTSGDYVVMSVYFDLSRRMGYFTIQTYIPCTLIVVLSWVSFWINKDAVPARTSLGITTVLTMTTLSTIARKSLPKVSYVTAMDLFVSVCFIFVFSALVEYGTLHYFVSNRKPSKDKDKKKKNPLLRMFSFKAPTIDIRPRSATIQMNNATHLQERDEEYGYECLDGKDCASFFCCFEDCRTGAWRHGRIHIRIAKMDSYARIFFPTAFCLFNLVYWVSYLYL

CCCC1(CCC)C(=O)OCC1NS(=O)(=O)c1ccc(Cl)cc1 (centres unmarked) [Compound 31, 3-(p-Chlorophenylsulfonamido)-2,2-di(C-propyl)-1,4-butyrolactone]
IC50 [1]: 10 µM and ~10 µM
Inhibition of the radiolabeled ligands % Muscimol [2]: 0%
activation at 5 µM ([3]; 5 μM, α1β2γ2, read-out: % of stimulation of the GABA currents): 23%
insoluble at (concentration) ([4]; in the GABA current test): insoluble at higher concentrations
solubility ([4]; pH 7.4): > 5 µM

C[C@@H]1C(=O)OC[C@@H]1N(Cc1ccccc1)C(=O)OCc1ccccc1 (relative stereo) [Compound 43, cis-3-(N-benzyl-N-benzyloxycarboyl)amino-2-(C-methyl)-1,4-butyrolactone]
Inhibition of the radiolabeled ligands % Flu ([5]; 10 μM): 20%
Inhibition of the radiolabeled ligands % Flu ([5]; 100 μM): 30%
Inhibition of the radiolabeled ligands % TBPS ([1]; 10 μM): 35%
Inhibition of the radiolabeled ligands % TBPS ([1]; 100 μM): 60%
Inhibition of the radiolabeled ligands % Muscimol [2]: 0%
% of stimulation of the GABA currents ([3]; 200 μM, α1β2γ2): −3 ± 3%

CCC1(C)COC(=O)C1 (centres unmarked) [Compound 54]
convulsant or anticonvulsant effect in mice [6]: convulsant effects

CCCC1(CCC)C(=O)OCC1NC(=O)c1ccccc1 (centres unmarked) [Compound 34]
stimulation of the binding of flunitrazepam (printed in the % Flu inhibition column) ([5]; 100 μM): weak stimulation and weak
Inhibition of the radiolabeled ligands % Muscimol [2]: 0%
activation at 2 µM [3, 9]: 17%
activation at 20 µM [3, 9]: 207%
activation at 200 µM [3, 10]: 420%

CCCC1(CCC)C(=O)OCC1NC(=O)OCc1ccccc1 (centres unmarked) [Compound 30, 3-Benzyloxycarbonylamino-2,2-(C-dipropyl)-1,4-butyrolactone]
Inhibition of the radiolabeled ligands % Flu ([5]; 100 μM): 0%
Inhibition of the radiolabeled ligands % TBPS ([1]; 10 μM): 0 10 μM) %
Inhibition of the radiolabeled ligands % TBPS ([1]; 100 μM): 55%
Inhibition of the radiolabeled ligands % Muscimol [2]: 0%
activation at 1 µM ([3]; 1 μM, α1β2γ2, read-out: % of stimulation of the GABA currents): 15%
activation at 10 µM ([3]; 10 μM, α1β2γ2, read-out: % of stimulation of the GABA currents): 140%
activation at 50 µM ([3]; 50 μM, α1β2γ2, read-out: % of stimulation of the GABA currents): 250%
activation at 200 µM [3, 10]: 51%

CCCC1(CCC)C(=O)OCC1NS(=O)(=O)c1ccc(C(F)(F)F)cc1 (centres unmarked) [Compound 32, 3-(p-Trifluoromethylphenylsulfonamido)-2,2-di(C-propyl)-1,4-butyrolactone]
stimulation of the binding of flunitrazepam (printed in the % Flu inhibition column) ([5]; 100 μM): 15-20%
Inhibition of the radiolabeled ligands % TBPS ([1]; 10 μM, anterior part of the brain): 100%
Inhibition of TBPS in the cerebellum ([1]; cerebellum): incomplete
Inhibition of the radiolabeled ligands % Muscimol [2]: 0%

CCC1(C)CCOC1=O (centres unmarked) [Compound 55]
IC50 [7]: 2300 µM
% of stimulation of GABA (concentration) ([8]; 300 μM): +101 ± 8%
convulsant or anticonvulsant effect in mice [6]: anticonvulsant properties

C[C@@H]1C(=O)OC[C@H]1NC(=O)OCc1ccccc1 (relative stereo) [Compound 28, trans-3-benzyloxycarbonylamino-2-(C-methyl)-1,4-butyrolactone]
Inhibition of the radiolabeled ligands % Flu ([5]; 100 μM): 0%
Inhibition of the radiolabeled ligands % TBPS ([1]; 100 μM): 0%
Inhibition of the radiolabeled ligands % Muscimol [2]: 0%
stimulating activities for the GABA current (in words) [3]: low stimulating activities
% of stimulation of the GABA currents ([3]; 50 μM, α1β2γ2): −7 ± 7%

CCCC1(CCC)C(=O)OCC1NS(=O)(=O)c1ccc(OC)cc1 (centres unmarked) [Compound 33, 3-(p-Methoxyphenylsulfonamido)-2,2-di(C-propyl)-1,4-butyrolactone]
stimulation of the binding of flunitrazepam (printed in the % Flu inhibition column) ([5]; 100 μM): weak
IC50 [1]: 50 µM
Inhibition of the radiolabeled ligands % Muscimol [2]: 0%

CC1(CC(F)(F)F)CCOC1=O (centres unmarked) [Compound 61]
IC50 [7]: 3100 µM
% of stimulation of GABA (concentration) ([8]; 1 μM): +146 ± 12%

CCC1(CC)CCNC1=O [Compound 58]
IC50 [7]: 5800 µM
% of stimulation of GABA (concentration) ([8]; 1 μM): +137 ± 6%

CC1(CC(F)(F)F)CCSC1=O (centres unmarked) [Compound 60]
IC50 [7]: 520 µM
% of stimulation of GABA (concentration) ([8]; 300 μM): +160 ± 17%

O=C1CC(NC(=O)OCc2ccccc2)CO1 (centres unmarked) [Compound 26, 3-Benzyloxycarbonylamino-1,4-butyrolactone]
Inhibition of the radiolabeled ligands % Flu ([5]; 100 μM): 0%
Inhibition of the radiolabeled ligands % TBPS ([1]; 100 μM): 0%
Inhibition of the radiolabeled ligands % Muscimol [2]: 0%
stimulating activities for the GABA current (in words) [3]: low stimulating activities
% of stimulation of the GABA currents ([3]; 0.1 μM, α1β2γ2): +47 ± 90%
% of stimulation of the GABA currents ([3]; 200 μM, α1β2γ2): +47 ± 9%

C=CCOC(=O)NC1COC(=O)C1(CCC)CCC (centres unmarked) [Compound 35, 3-Allyloxycarbonylamino-2,2-di(C-propyl)-1,4-butyrolactone]
stimulation of the binding of flunitrazepam (printed in the % Flu inhibition column) ([5]; 100 μM): weak stimulation and weak
Inhibition of the radiolabeled ligands % Muscimol [2]: 0%
times more powerful than α-EMTBL in stimulating the currents produced by GABA [3]: up to 100 times
activation at 2 µM [3, 9]: 26%
activation at 20 µM [3, 9]: 229%
activation at 200 µM [3, 10]: 765%

CCCC1(CCC)C(=O)OCC1NC(=O)OCC (centres unmarked) [Compound 36, 3-Ethyloxycarbonylamino-2,2-di(C-propyl)-1,4-butyrolactone]
Inhibition of the radiolabeled ligands % Flu ([5]; 100 μM): 0%
IC50 [1]: > 100 µM
Inhibition of the radiolabeled ligands % Muscimol [2]: 0%

3-Benzylamino-3,3-di(C-allyl)-1,4-butyrolactone [Compound 16]
Inhibition of the radiolabeled ligands % TBPS ([1]; 100 μM): 62%
% of stimulation of the GABA currents ([3]; 200 μM, α1β2γ2): +115 ± 30%

C[C@H]1C(=O)OC[C@H]1NC(=O)OCc1ccccc1 (relative stereo) [Compound 27, cis-3-benzyloxycarbonylamino-2-(C-methyl)-1,4-butyrolactone]
Inhibition of the radiolabeled ligands % Flu ([5]; 100 μM): 0%
Inhibition of the radiolabeled ligands % TBPS ([1]; 100 μM): 0%
stimulation of muscimol binding (printed in the % Muscimol inhibition column) [2]: 10% stimulation
% of stimulation of the GABA currents ([3]; 50 μM, α1β2γ2): −1 ± 2%

C[C@@H]1C(=O)OC[C@H]1N(Cc1ccccc1)C(=O)OCc1ccccc1 (relative stereo) [Compound 42, trans-3-(N-benzyl-N-benzyloxycarboyl)amino-2-(C-methyl)-1,4-butyrolactone]
Inhibition of the radiolabeled ligands % Flu ([5]; 100 μM): 0%
Inhibition of the radiolabeled ligands % TBPS ([1]; 10 μM): 15%
Inhibition of the radiolabeled ligands % TBPS ([1]; 100 μM): 52%
% of stimulation of the GABA currents ([3]; 200 μM, α1β2γ2): +3 ± 10%
